Legend:
[1] = system: neural rosettes chemically differentiated from NS-iPSCs; assay: mRNA expression of ectoderm, neural rosette and neural marker genes in neural rosettes chemically differentiated from NS-iPSCs (RT-PCR, q-PCR); format: cell-based, human; conditions: stepwise treatment with both dorsomorphin (5 μM) and SB431542 (10 μM) together, versus normal control (H9, CRL12)
Description: To investigate whether or not the neural marker genes were normally expressed in the neural rosettes chemically differentiated from NS-iPSCs, the mRNA expression levels of the ectoderm genes PAX6, ZIC1, NESTIN, and VIMENTIN, and the NR genes PLZF, NR2F1, HES5, and DACH1, and the neural genes TUJ1, ASCL1, and NF1 were measured in the chemically differentiated NS-EBs. Particularly, the neural rosettes chemically differentiated from NS-iPSCs by the same manner as described in Example <6-1> were prepared. […] The expressions of those genes were observed by RT-PCR at mRNA level. As for the normal control, the neural rosettes chemically differentiated from H9 cell line and CRL12 in Example <6-1> were used. […] The expression of NR2F1 gene was measured by q-PCR at mRNA level. As the control group for the normalization of the expression level, GAPDH gene was used so that the expression was also measured. ΔCt value of each gene was calculated by the difference between Ct value of GAPDH and Ct value of NR2F1 gene. As for the control, the human normal embryonic stem cell line H9 and the human normal fibroblast-derived iPSCs (CRL12) were induced into neural rosettes via chemical treatments as described in Example <6-1>. The expressions of those neural rosettes were compared with the gene expression of NS-NR. The results are presented by the fold change calculated by the mathematical formula 1 above.

[2] = system: NS-iPSCs (Noonan syndrome patient-derived induced pluripotent stem cells); assay: Chemically directed differentiation of NS-iPSCs into embryoid bodies and neural rosettes, cell morphology; format: cell-based, human; conditions: stepwise treatment with both dorsomorphin (5 μM) and SB431542 (10 μM) together; NS-iPSC #4 and #5; compared with natural differentiation and normal control (H9, CRL12)
Description: Due to the abnormality in the signal transduction system in Noonan syndrome, EBs and neural rosettes naturally differentiated from NS-iPSCs were abnormally developed. To overcome this problem, the present inventors induced chemically directed differentiation of EBs and neural rosettes from NS-iPSCs by using dorsomorphin (DM) and SB431542 according to the schematic diagram of FIG. 18 (FIG. 18 and Table 6). Particularly, the colonies of NS-iPSC #4 and NS-iPSC #5 induced by the same manner as described in Example <2-1> were quartered by using 1 ml insulin syringe. The quartered NS-iPSCs were loaded on ultra-low attachment dish (SPL life sciences Co., Ltd, Korea), which were resuspended in 4 ml of embryoid body differentiation media which was the DMEM/F12 (Invitrogen, USA) containing 10% serum replacement (SR; GIBCO, USA). The resuspended NS-iPSCs were cultured for 4 days to induce the differentiation into NS-EBs. Then, the differentiated NS-EBs were obtained and cultured for 4˜5 days on the matrigel (1:50, BD biosciences, USA) coated dish in the neural rosette media which consists of DMEM/F12 supplemented with N2, B27 and […] of bFGF (FGF2, R&D systems, USA). The generated Noonan syndrome-derived neural rosettes were mechanically selected and placed on the fibronectin (BD biosciences, USA) coated dish, followed by culture in the neural rosette media for 4˜5 days. […]

Structure (SMILES): NC(=O)c1ccc(-c2nc(-c3ccc4c(c3)OCO4)c(-c3ccccn3)[nH]2)cc1 [SB431542]
- expression of NR2F1 ([1]; mRNA level in NS neural rosettes): decreased
- expressions of ectoderm, neural rosette, and neural marker genes ([1]; mRNA level): adjusted to the nearly normal level
- cell morphology of the chemically differentiated EBs and neural rosettes [2]: recovered to a normal shape

— patent US20170016886A1, “INDUCED PLURIPOTENT STEM CELL MODEL OF NOONAN SYNDROME AND USE THEREOF” (KOREA ADVANCED INSTITUTE OF SCIENCE AND TECHNOLOGY, priority 2014, published 2017)
